Results: article PMC6330093 (Bioconjugate chemistry, 2017)

Key:
[1] = variable temperature CD, 50 μM protein, 20 mM sodium phosphate buffer, pH 7
[2] = target: proteinase K (Parengyodontium album, UniProt P06873); experiment: HPLC-based proteolysis assay with proteinase K; assay type: in vitro ADME
Sequence of proteinase K (P06873 106-384, species assumed): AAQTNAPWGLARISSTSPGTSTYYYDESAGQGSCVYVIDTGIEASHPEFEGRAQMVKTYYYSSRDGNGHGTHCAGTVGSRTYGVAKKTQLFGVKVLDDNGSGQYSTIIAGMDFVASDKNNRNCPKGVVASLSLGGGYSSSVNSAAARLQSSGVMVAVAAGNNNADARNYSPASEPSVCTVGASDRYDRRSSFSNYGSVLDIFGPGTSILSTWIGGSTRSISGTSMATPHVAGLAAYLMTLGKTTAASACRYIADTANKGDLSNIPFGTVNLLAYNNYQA

**Q.** With `CC[C@H](C)[C@H](NC(=O)[C@H](CCC(N)=O)NC(=O)[C@H](CC(N)=O)NC(=O)[C@H](Cc1ccccc1)NC(=O)[C@H](Cc1ccc(O)cc1)NC(=O)[C@H](Cc1ccc(O)cc1)NC(=O)[C@@H](NC(=O)[C@H](CCCNC(=N)N)NC(=O)CNC(=O)[C@H](CO)NC(=O)[C@H](CO)NC(=O)[C@H](CCCNC(=N)N)NC(=O)[C@H](CO)NC(=O)[C@H](CCSC)NC(=O)[C@H](CCCNC(=N)N)NC(=O)[C@H](CCCCN)NC(=O)[C@H](CCC(=O)O)NC(=O)[C@H](Cc1c[nH]c2ccccc12)NC(=O)CNC(=O)[C@@H]1CCCN1C(=O)[C@@H]1CCCN1C(=O)[C@H](CC(C)C)NC(=O)[C@@H](N)CCCCN)C(C)C)C(=O)N[C@H](C(=O)N[C@@H](CC(N)=O)C(=O)N[C@@H](C)C(=O)N[C@@H](CO)C(=O)N[C@@H](CCC(N)=O)C(=O)N[C@@H](Cc1ccccc1)C(=O)N[C@@H](CCC(=O)O)C(=O)N[C@@H](CCCNC(=N)N)C(=O)N1CCC[C@H]1C(=O)N[C@@H](CO)C(=O)NCC(=O)O)[C@@H](C)O` [27Q] as the compound, how does the “Tm (melting temperature)” value [1] read?
**A.** Its value is 56.4 ±0.2 °C.

**Q.** And the “k, apparent proteolysis rate constant” value [2]?
**A.** The value was 10.8 ±0.2 s^−1 × 10^3.

**Q.** Which “Tm (melting temperature)” value [1] does the source give for `CC[C@H](C)[C@H](NC(=O)[C@H](Cc1c[nH]cn1)NC(=O)[C@H](CC(N)=O)NC(=O)[C@H](Cc1ccccc1)NC(=O)[C@H](Cc1ccc(O)cc1)NC(=O)[C@H](Cc1ccc(O)cc1)NC(=O)[C@@H](NC(=O)[C@H](CCCNC(=N)N)NC(=O)CNC(=O)[C@H](CO)NC(=O)[C@H](CO)NC(=O)[C@H](CCCNC(=N)N)NC(=O)[C@H](CCC(N)=O)NC(=O)[C@H](CCSC)NC(=O)[C@H](CCCNC(=N)N)NC(=O)[C@H](CCCCN)NC(=O)[C@H](CCC(=O)O)NC(=O)[C@H](Cc1c[nH]c2ccccc12)NC(=O)CNC(=O)[C@@H]1CCCN1C(=O)[C@@H]1CCCN1C(=O)[C@H](CC(C)C)NC(=O)[C@@H](N)CCCCN)C(C)C)C(=O)N[C@H](C(=O)N[C@@H](CC(N)=O)C(=O)N[C@@H](C)C(=O)N[C@@H](CO)C(=O)N[C@@H](CCC(N)=O)C(=O)N[C@@H](Cc1ccccc1)C(=O)N[C@@H](CCC(=O)O)C(=O)N[C@@H](CCCNC(=N)N)C(=O)N1CCC[C@H]1C(=O)N[C@@H](CO)C(=O)NCC(=O)O)[C@@H](C)O` [16Q] here?
**A.** Its value is 56.6 ±0.1 °C.

**Q.** What about the “k, apparent proteolysis rate constant” value [2] of the same compound?
**A.** Its value is 8.9 ±0.2 s^−1 × 10^3.

**Q.** For `CC[C@H](C)[C@H](NC(=O)[C@H](Cc1c[nH]cn1)NC(=O)[C@H](CC(N)=O)NC(=O)[C@H](Cc1ccccc1)NC(=O)[C@H](Cc1ccc(O)cc1)NC(=O)[C@H](Cc1ccc(O)cc1)NC(=O)[C@@H](NC(=O)[C@H](CCCNC(=N)N)NC(=O)CNC(=O)[C@H](CO)NC(=O)[C@H](CO)NC(=O)[C@H](CCCNC(=N)N)NC(=O)[C@H](CO)NC(=O)[C@H](CCSC)NC(=O)[C@H](CCCNC(=N)N)NC(=O)[C@H](CCCCN)NC(=O)[C@H](CCC(=O)O)NC(=O)[C@H](Cc1c[nH]c2ccccc12)NC(=O)CNC(=O)[C@@H]1CCCN1C(=O)[C@@H]1CCCN1C(=O)[C@H](CC(C)C)NC(=O)[C@@H](N)CCCCN)C(C)C)C(=O)N[C@@H](CCC(N)=O)C(=O)N[C@@H](CC(N)=O)C(=O)N[C@@H](C)C(=O)N[C@@H](CO)C(=O)N[C@@H](CCC(N)=O)C(=O)N[C@@H](Cc1ccccc1)C(=O)N[C@@H](CCC(=O)O)C(=O)N[C@@H](CCCNC(=N)N)C(=O)N1CCC[C@H]1C(=O)N[C@@H](CO)C(=O)NCC(=O)O` [29Q], which “Tm (melting temperature)” value [1] is on record?
**A.** The value was 45.3 ±0.5 °C.

**Q.** What about the “k, apparent proteolysis rate constant” value [2] of the same compound?
**A.** Its value is 47.2 ±2.6 s^−1 × 10^3.
